Reference: ChEMBL document CHEMBL5346981, “Structure-Guided Design and Synthesis of a Pyridazinone Series of Trypanosoma cruzi Proteasome Inhibitors” (J Med Chem, 2023)
Activity calls are given as the source filed them. No cut-off for these calls is given here.

Experiments:
[1] = Inhibition of chymotrypsin like activity in Trypanosoma cruzi Silvio X10/7 proteasome using Suc-LLVY-Rho-110-D-Proline peptide as substrate preincubated for 10 mins followed by substrate addition and measured for 30 mins by fluorescence based microplate reader analysis
[2] = Cytotoxicity against African green monkey Vero E6 cells assessed as reduction in cell viability; format: toxicity, cell-based; conditions: African green monkey (Chlorocebus sabaeus)
[3] = tested on: Trypanosoma cruzi; assay: Antiprotozoal activity against intracellular Trypanosoma cruzi X10/7 A1 amastigotes infected in Vero cells assessed as parasite growth inhibition incubated for 72 to 96 hrs by Hoechst 33342 staining based analysis; format: functional, organism-based; conditions: X10/7 A1, Vero
[4] = tested on: Blood; assay: T>EC99 in Balb/c mouse infected with Trypanosoma cruzi X10/7 A1 assessed as time of blood free drug concentration in mouse exceeding EC99 for antiprotozoal activity against intracellular Trypanosoma cruzi infected in Vero cells at 50 mg/kg, po and measured after 1 day by UPLC-MS/MS analysis; format: ADME, organism-based; conditions: in vivo, 24 h
[5] = tested on: Blood; assay: T>EC99 in Balb/c mouse infected with Trypanosoma cruzi X10/7 A1 assessed as time of blood free drug concentration in mouse exceeding EC99 for antiprotozoal activity against intracellular Trypanosoma cruzi infected in Vero cells at 50 mg/kg, po and measured after 20 days by UPLC-MS/MS analysis; format: ADME, organism-based; conditions: in vivo, 480 h, time 20 day
[6] = tested on: Blood; assay: T>EC99 in Balb/c mouse assessed as time of blood total concentration in mouse exceeding EC99 for antiprotozoal activity against intracellular Trypanosoma cruzi infected in Vero cells at 50 mg/kg, po and measured upto 24 hrs by UPLC-MS/MS analysis; format: ADME, organism-based; conditions: in vivo
[7] = tested on: Trypanosoma cruzi; assay: Antitrypanosomal activity against Trypanosoma cruzi X10/7 A1 infected in Balb/c mouse assessed as parasite clearance at 100 mg/kg, po bid for 20 days by bioluminescence analysis; format: functional, organism-based; conditions: time 20.0 day

Compound	pIC50 [1]	EC50 [2] [µM]	further results
COc1ccc(Cn2nc(C(=O)Nc3ccc(F)c(C(=O)NCCN4CCOCC4)c3)ccc2=O)cc1	6.9	> 50.1	
O=C(Nc1ccc(F)c(-c2cn3nc(N4CCOCC4)cnc3n2)c1)N1CCCC1	7.3	> 50.1	
COc1ccc(Cn2nc(C(=O)Nc3ccc(F)c(C(=O)N[C@H]4C[C@@H](N5CCOCC5)C4)c3)ccc2=O)cc1F	8.1		
O=C(Nc1ccc(F)c(C(=O)NC2CC2)c1)c1ccc(=O)n(Cc2ccccc2)n1	6.8	> 50.1	EC50 [3]: 2.51 µM
COc1ccc(Cn2nc(C(=O)Nc3ccc(F)c(C(=O)NC4CC4)c3)ccc2=O)cc1	7.5	> 50.1	
COc1ncc(Cn2nc(C(=O)Nc3ccc(F)c(C(=O)NC4CC4)c3)ccc2=O)cc1F		> 50.1	EC50 [3]: 31.6 µM
CNC(=O)c1cc(NC(=O)c2ccc(=O)n(Cc3ccc(OC)cc3)n2)ccc1F			T>EC99 [4]: 5 h; T>EC99 [5]: < 2 h
O=C(Nc1ccc(F)c(C(=O)NC2CC2)c1)c1ccc(=O)n(CC2CCCCC2)n1	6.4	> 50.1	
CN(C(=O)c1cccc(NC(=O)c2ccc(=O)n(Cc3ccccc3)n2)c1)C1CC1	4.7		
O=C(NC1CC1)c1cccc(NC(=O)c2ccc(=O)n(Cc3ccccc3)n2)c1	6.2		EC50 [3]: 10 µM
CN(C(=O)c1ccc(=O)n(Cc2ccccc2)n1)c1cccc(C(=O)NC2CC2)c1	< 4	> 50.1	
COc1ccc(Cn2nc(C(=O)Nc3ccc(F)c(C(=O)N[C@H](C)CO)c3)ccc2=O)cc1F	7.3		EC50 [3]: 0.316 µM
COc1cccc(Cn2nc(C(=O)Nc3ccc(F)c(C(=O)NC4CC4)c3)ccc2=O)c1	< 4	> 50.1	
COc1ccc(Cn2nc(C(=O)Nc3ccc(F)c(C(=O)N[C@H]4C[C@H](OC)C4)c3)ccc2=O)cc1F	8.2		
O=C(Nc1ccc(F)c(C(=O)NC2CC2)c1)c1ccc(=O)n(Cc2ccc(Cl)c(F)c2)n1	7.6	> 50.1	EC50 [3]: 0.251 µM
COc1ccc(Cn2nc(C(=O)Nc3ccc(F)c(C(=O)NC4CC4)c3)ccc2=O)cc1Cl	8.5	> 50.1	
O=C(NC1CC1)c1ccc(F)c(NC(=O)c2ccc(=O)n(Cc3ccccc3)n2)c1	5.8	> 50.1	
COc1ccc(Cn2nc(C(=O)Nc3ccc(F)c(C(=O)NC4CC4)c3)ccc2=O)cc1F	8.1		T>EC99 [6]: 14 h
COc1ccc(Cn2nc(C(=O)Nc3ccc(F)c(C(=O)NC4CC4)c3)ccc2=O)cc1C#N	8	> 50.1	
CNC(=O)c1cc(NC(=O)c2ccc(=O)n(Cc3ccc(OC)c(F)c3)n2)ccc1F	8.2		
COc1ccc(Cn2nc(C(=O)Nc3ccc(F)c(C(=O)N[C@H]4C[C@H](N5CCOCC5)C4)c3)ccc2=O)cc1F	8.1		
O=C(Cn1ccnc1[N+](=O)[O-])NCc1ccccc1			Activity [7]: Active
O=C(Nc1cccc(C(=O)NC2CC2)c1)c1ccc(=O)n(Cc2ccccc2)c1	5.8	> 50.1	
